Here are results for two compounds from US10738082B2, “One-bead-two-compound macrocyclic library and methods of preparation and use” (University of South Florida, priority 2017, dated 2020).

The test system of one experiment is cell migration. Conditions: 10 μM, 24 hours. The method, then: Invasion and migration assays were performed as described before. Cells were plated into the top chambers and treated with either vehicle or 10 μM C-84. 24 hours later cells in top chamber were scraped and migrated cells were fixed with crystal violet staining.
Another experiment has as its system cell invasion. The experiment in a line: Cell invasion assay. In kind it is cell-based. Conditions: 10 μM, 24 hours. The method, then:
Invasion and migration assays were performed as described before.

The next experiment has as its target GST protein (Schistosoma japonicum, UniProt P08515). Description: Fluorescence polarization (FP) binding assay, GST protein. For orientation: Fluorescence polarisation rises when a labelled molecule tumbles more slowly, as on binding a larger partner.

Chain of GST protein (P08515 whole entry): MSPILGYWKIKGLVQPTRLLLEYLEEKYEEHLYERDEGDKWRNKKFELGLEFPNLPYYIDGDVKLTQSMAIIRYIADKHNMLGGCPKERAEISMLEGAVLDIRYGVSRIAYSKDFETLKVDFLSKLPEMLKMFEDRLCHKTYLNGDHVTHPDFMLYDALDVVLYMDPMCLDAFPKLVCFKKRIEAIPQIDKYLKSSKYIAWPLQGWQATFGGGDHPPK

`NC(=O)CN1C[C@H](Cc2ccccc2)NC(=O)CN(C(=O)CCC(=O)O)C[C@H](CCC(=O)O)NC(=O)CN(C(=O)Cc2ccc3c(c2)OCO3)C[C@H](CCC(=O)O)NC(=O)CN(C(=O)CCC2CCCCC2)C[C@H](Cc2ccccc2)NC(=O)c2ccc(cc2)CSCCC1=O` [C-84]: in the experiment on cell migration, the “decrease in cell migration” value was “around 70%”. Besides, the “decrease in cell invasion” value in the experiment on cell invasion is reported as about 80%.

In general, Kd refers to a measure of binding affinity in units of concentration. Regarding `NC(=O)[C@H](CCCCNC(=S)Nc1ccc(-c2c3ccc(=O)cc-3oc3cc(O)ccc23)c(C(=O)O)c1)NC(=O)CN1C[C@H](Cc2ccccc2)NC(=O)CN(C(=O)CCC(=O)O)C[C@H](CCC(=O)O)NC(=O)CN(C(=O)Cc2ccc3c(c2)OCO3)C[C@H](CCC(=O)O)NC(=O)CN(C(=O)CCC2CCCCC2)C[C@H](Cc2ccccc2)NC(=O)c2ccc(cc2)CSCCC1=O` [YS-D-44], at GST protein (Kd GST vs Kd EphA2), the “GST binding weaker than EphA2 binding” value is given as about 150 fold. The Kd on GST protein (fluorescence polarization, 50 nM FITC labeled AApeptide, GST 0.3125 to 55 μM, read-out: binding affinity to GST protein, Kd) worked out at 12.3 µM.
